Laboratory results taken from patent US20180099931A1 (AbbVie S.à.r.l., priority 2016, published 2018).
Read-outs that look alike come from different tables or passages of the source.

Molecular target: T1, F508delCFTR (Homo sapiens, UniProt P13569, DEL508-508)
T1 construct: expressed in transfected cells; host or cells: CFBE41o- human lung-derived epithelial cells (CFBE4lo-F508delCFTR-HRP), doxycycline-inducible
Assay: Cell Surface Expression-Horse Radish Peroxidase (CSE-HRP) Assay;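 for Maximum % activity (with co-corrector): co-corrector and positive control are both the same reference corrector at 2 µM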;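 for Maximum % activity (without co-corrector): percent of the 2 µM on-plate positive control corrector response above DMSO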
Assay type: cell-based
Conditions: for Emax / Maximum % activity (with co-corrector): maximum at any tested concentration, normalized to on-plate positive control; for Emax: read-out: Maximum % activity (without co-corrector)

[1] = test compound without co-corrector
[2] = test compound without co-corrector, read-out: EC50 (without co-corrector)
[3] = with co-corrector (2 μM of 3-[(2R,4R)-4-({[1-(2,2-difluoro-1,3-benzodioxol-5-yl)cyclopropyl]carbonyl}amino)-7-methoxy-3,4-dihydro-2H-chromen-2-yl]benzoic acid)
[4] = with co-corrector (2 μM of 3-[(2R,4R)-4-({[1-(2,2-difluoro-1,3-benzodioxol-5-yl)cyclopropyl]carbonyl}amino)-7-methoxy-3,4-dihydro-2H-chromen-2-yl]benzoic acid), read-out: EC50 (with co-corrector)

T1 sequence (P13569 with tags, fused parts or gaps DEL508-508): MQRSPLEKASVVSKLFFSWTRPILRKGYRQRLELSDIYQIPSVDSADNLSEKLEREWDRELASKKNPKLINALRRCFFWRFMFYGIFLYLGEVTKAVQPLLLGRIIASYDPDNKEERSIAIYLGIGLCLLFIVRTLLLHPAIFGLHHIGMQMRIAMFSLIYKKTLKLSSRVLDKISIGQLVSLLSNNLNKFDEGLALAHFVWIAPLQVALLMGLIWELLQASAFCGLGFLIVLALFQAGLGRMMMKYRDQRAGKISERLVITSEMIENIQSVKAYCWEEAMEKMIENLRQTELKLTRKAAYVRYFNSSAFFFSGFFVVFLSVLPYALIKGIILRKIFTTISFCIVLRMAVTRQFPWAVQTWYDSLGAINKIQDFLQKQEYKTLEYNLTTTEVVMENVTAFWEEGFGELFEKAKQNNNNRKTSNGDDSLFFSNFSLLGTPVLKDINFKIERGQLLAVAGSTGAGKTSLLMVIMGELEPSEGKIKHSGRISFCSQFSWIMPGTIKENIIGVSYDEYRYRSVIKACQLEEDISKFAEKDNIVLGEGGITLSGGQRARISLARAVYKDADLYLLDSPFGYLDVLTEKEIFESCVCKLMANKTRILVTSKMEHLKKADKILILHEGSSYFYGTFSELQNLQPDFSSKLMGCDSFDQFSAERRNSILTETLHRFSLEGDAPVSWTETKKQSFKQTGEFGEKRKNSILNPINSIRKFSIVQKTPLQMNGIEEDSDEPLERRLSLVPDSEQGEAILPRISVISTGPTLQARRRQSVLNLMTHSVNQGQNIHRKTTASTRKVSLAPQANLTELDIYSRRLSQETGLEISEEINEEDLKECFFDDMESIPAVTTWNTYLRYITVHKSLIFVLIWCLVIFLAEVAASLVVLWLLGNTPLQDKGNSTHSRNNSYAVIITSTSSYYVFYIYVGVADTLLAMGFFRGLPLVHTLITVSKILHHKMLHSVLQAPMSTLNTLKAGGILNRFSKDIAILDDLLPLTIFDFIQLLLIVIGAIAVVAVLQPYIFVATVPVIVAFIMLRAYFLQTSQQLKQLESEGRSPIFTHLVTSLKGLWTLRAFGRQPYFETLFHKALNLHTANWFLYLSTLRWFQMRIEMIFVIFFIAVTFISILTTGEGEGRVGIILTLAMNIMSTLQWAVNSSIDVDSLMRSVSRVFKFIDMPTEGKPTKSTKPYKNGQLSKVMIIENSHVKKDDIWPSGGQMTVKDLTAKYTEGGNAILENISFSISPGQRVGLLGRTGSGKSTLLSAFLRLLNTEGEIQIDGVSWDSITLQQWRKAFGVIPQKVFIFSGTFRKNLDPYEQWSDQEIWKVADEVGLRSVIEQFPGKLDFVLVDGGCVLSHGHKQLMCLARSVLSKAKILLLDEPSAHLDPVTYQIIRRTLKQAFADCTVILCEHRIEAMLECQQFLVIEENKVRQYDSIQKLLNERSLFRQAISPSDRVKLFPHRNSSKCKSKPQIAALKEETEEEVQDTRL

Emax [1] | EC50 [2] | Maximum % activity (with co-corrector) [3] | EC50 [4] | Maximum % activity (with co-corrector) (with co-corrector (2 μM)) | SMILES
100 to 200% | < 1000 nM | +++ (≥350) | < 1000 nM | – | COc1ncc(C(F)(F)F)cc1CN[C@H]1[C@H](C(C)(C)C)[C@@H](C(=O)O)N(C(=O)C2CCC(F)(F)C2)[C@H]1c1ccccc1C(C)C (stereo partly shown) [II-589]
100 to 200% | 1000 to 10000 nM | +++ (≥350) | < 1000 nM | – | COc1ncc(C(F)(F)F)cc1CN[C@H]1[C@H](C(C)(C)C)[C@@H](C(=O)O)N(C(=O)[C@H](C)OC)[C@H]1c1ccccc1C(C)C [II-590]
> 200% | 1000 to 10000 nM | +++ (≥350) | < 1000 nM | – | COc1ncc(C(F)(F)F)cc1CN[C@H]1[C@H](C(C)(C)C)[C@@H](C(=O)O)N(C(=O)C2CCOCC2)[C@H]1c1ccccc1C(C)C [II-591]
> 200% | 1000 to 10000 nM | +++ (≥350) | 1000 to 10000 nM | – | COc1ncc(C(F)(F)F)cc1CN[C@H]1[C@H](C(C)(C)C)[C@@H](C(=O)O)N(C(=O)OC(C)C)[C@H]1c1cccnc1N1CCC1 [II-592]
> 200% | 1000 to 10000 nM | +++ (≥350) | < 1000 nM | – | COc1ncc(Br)cc1CN[C@H]1[C@H](C(C)(C)C)[C@@H](C(=O)O)N(C(=O)[C@@H]2CCCO2)[C@H]1c1ccccc1C(C)C [II-594]
> 200% | < 1000 nM | +++ (≥350) | < 1000 nM | – | COc1ccc(C(F)(F)F)cc1CN[C@H]1[C@H](C(C)(C)C)[C@@H](C(=O)O)N(C(=O)[C@@H]2CCCO2)[C@H]1c1ccccc1C(C)C [II-595]
< 100% | 1000 to 10000 nM | ++ (≥150 and <350) | 1000 to 10000 nM | – | COc1ncc(C(F)(F)F)cc1CN[C@H]1[C@H](C(C)(C)C)[C@@H](C(=O)O)N(C(=O)[C@@H]2CCCO2)[C@H]1c1cccnc1N(C)C [II-596]
100 to 200% | 1000 to 10000 nM | +++ (≥350) | 1000 to 10000 nM | – | COc1ncc(C2CCC2)cc1CN[C@H]1[C@H](C(C)(C)C)[C@@H](C(=O)O)N(C(=O)[C@@H]2CCCO2)[C@H]1c1ccccc1C(F)F [II-597]
> 200% | 1000 to 10000 nM | +++ (≥350) | < 1000 nM | – | COc1nc2ccccc2cc1CN[C@H]1[C@H](C(C)(C)C)[C@@H](C(=O)O)N(C(=O)C2CCOCC2)[C@H]1c1ccccc1C(C)C [II-598]
< 100% | 1000 to 10000 nM | ++ (≥150 and <350) | 1000 to 10000 nM | – | COc1nc2ccccc2cc1CN[C@H]1[C@H](C(C)(C)C)[C@@H](C(=O)O)N(C(=O)C2CCOCC2)[C@H]1c1cccnc1N(C)C [II-600]

Continued, compound first:

SMILES | Emax [1] | EC50 [2] | Maximum % activity (with co-corrector) [3] | EC50 [4] | Maximum % activity (with co-corrector) (with co-corrector (2 μM))
COc1cc(C(F)(F)F)ccc1CN[C@H]1[C@H](C(C)(C)C)[C@@H](C(=O)O)N(C(=O)[C@@H]2CCCO2)[C@H]1c1cccnc1C1CC1 [II-587] | 100 to 200% | 1000 to 10000 nM | +++ (≥350) | 1000 to 10000 nM | –
COc1ncc(C2CCC2)cc1CN[C@H]1[C@H](C(C)(C)C)[C@@H](C(=O)O)N(C(=O)[C@@H]2CCCO2)[C@H]1c1cccnc1C1CC1 [II-588] | 100 to 200% | 1000 to 10000 nM | +++ (≥350) | 1000 to 10000 nM | –
COc1ccc(C2(C)CCC2)cc1CN[C@H]1[C@H](C(C)(C)C)[C@@H](C(=O)O)N(C(=O)[C@@H]2CCCO2)[C@H]1c1ccccc1C(C)C [II-593] | > 200% | 1000 to 10000 nM | +++ (≥350) | < 1000 nM | –
COc1nc2ccccc2cc1CN[C@H]1[C@H](C(C)(C)C)[C@@H](C(=O)O)N(C(=O)[C@@H]2CCCO2)[C@H]1c1cccnc1N(C)C [II-599] | < 100% | 1000 to 10000 nM | ++ (≥150 and <350) | 1000 to 10000 nM | –
COc1ccc(C(F)(F)F)cc1CN[C@@H]1[C@@H](C(C)(C)C)[C@H](C(=O)O)N(C(=O)[C@H](OC)c2ccccc2)[C@@H]1c1ccccc1 [III-68] | < 100% | > 10000 nM | ++ (≥150 and <350) | 1000 to 10000 nM | –
CO[C@@H](C(=O)N1[C@H](c2ccccc2)[C@H](Nc2cc(C(F)(F)F)cc(C)n2)[C@@H](C(C)(C)C)[C@@H]1C(=O)O)c1ccccc1 [III-75] | < 100% | 1000 to 10000 nM | ++ (≥150 and <350) | 1000 to 10000 nM | –
CO[C@@H](C(=O)N1[C@H](C(=O)O)[C@@H](C(C)(C)C)[C@H](Nc2cc(C(F)(F)F)cc(C)n2)[C@@H]1c1ccccc1)c1ccccc1 [III-78] | < 100% | > 10000 nM | ++ (≥150 and <350) | 1000 to 10000 nM | –
COc1cc(C(F)(F)F)ccc1CN[C@@H]1[C@@H](C(C)(C)C)[C@H](C(=O)O)N(C(=O)C2CCCCC2)[C@@H]1c1ccccc1OC [III-95] | < 100% | > 10000 nM | – | 1000 to 10000 nM | ++ (≥150 and <350)
COc1ccc(C(F)(F)F)cc1CN[C@@H]1[C@@H](C(C)(C)C)[C@H](C(=O)O)N(C(=O)[C@H](OC)c2ccccc2)[C@@H]1c1ccccc1N(C)C [III-98] | < 100% | > 10000 nM | – | 1000 to 10000 nM | ++ (≥150 and <350)
COc1ccc(Cl)cc1CN[C@@H]1[C@@H](C(C)(C)C)[C@H](C(=O)O)N(C(=O)[C@H](OC)c2ccccc2)[C@@H]1c1ccccc1N(C)C [III-99] | < 100% | > 10000 nM | – | 1000 to 10000 nM | ++ (≥150 and <350)
COc1ccc(C(F)(F)F)cc1CN[C@H]1[C@H](C(C)(C)C)[C@@H](C(=O)O)N(C(=O)[C@](OC)(c2ccccc2)C(F)(F)F)[C@H]1c1ccccc1 [III-100] | < 100% | > 10000 nM | – | 1000 to 10000 nM | ++ (≥150 and <350)
COc1cc(C(F)(F)F)ccc1CN[C@@H]1[C@@H](C(C)(C)C)[C@H](C(=O)O)N(C(=O)[C@@H](OC)c2ccccc2)[C@@H]1c1ccccc1 [III-101] | < 100% | > 10000 nM | – | 1000 to 10000 nM | ++ (≥150 and <350)
COc1ccc(C(F)(F)F)cc1CN[C@@H]1[C@@H](C(C)(C)C)[C@H](C(=O)O)N(C(=O)[C@](OC)(c2ccccc2)C(F)(F)F)[C@@H]1c1ccccc1 [III-102] | < 100% | > 10000 nM | – | 1000 to 10000 nM | ++ (≥150 and <350)
CO[C@H](C(=O)N1[C@H](C(=O)O)[C@@H](C(C)(C)C)[C@H](Nc2cc(C(F)(F)F)cc(C)n2)[C@@H]1c1ccccc1)c1ccccc1 [III-103] | < 100% | > 10000 nM | – | 1000 to 10000 nM | + (<150)
COc1cc(C(F)(F)F)ccc1CN[C@@H]1[C@@H](C(C)(C)C)[C@H](C(=O)O)N(C(=O)[C@H]2CCCCO2)[C@@H]1c1ccccc1 [III-117] | < 100% | > 10000 nM | – | 1000 to 10000 nM | ++ (≥150 and <350)
COc1ccc(Br)cc1CN[C@H]1[C@H](C(C)(C)C)[C@@H](C(=O)O)N(C(=O)C2CCCCC2)[C@H]1c1ccccc1 [III-118] | > 200% | < 1000 nM | – | < 1000 nM | +++ (≥350)
COc1cc2c(cc1CN[C@H]1[C@H](C(C)(C)C)[C@@H](C(=O)O)N(C(=O)C3CCCCC3)[C@H]1c1ccccc1)C(C)(C)CCC2(C)C [III-119] | 100 to 200% | < 1000 nM | – | < 1000 nM | +++ (≥350)
CC(C)(C)[C@H]1[C@H](NCc2ccc3c(c2)CCCO3)[C@H](c2ccccc2)N(C(=O)C2CCCCC2)[C@@H]1C(=O)O [III-120] | < 100% | > 10000 nM | – | 1000 to 10000 nM | ++ (≥150 and <350)
